Experimental findings from US11660351B2, “Antibody drug conjugates (ADCs) having enzymatically cleavable groups” (Bayer Pharma Aktiengesellschaft, priority 2016, dated 2023) are described below.

One data set deals with SK-HEP-1. The data set is described as follows: Cytotoxic effect, MTT assay, SK-HEP-1 cells. It counts as cell-based. The following applies: Homo sapiens, SK-HEP1; Table 2, metabolites. On the technique in general: Tetrazolium assays rely on reduction of a dye to a coloured formazan, in cell work by metabolically active cells.
In another data set the test system is Caco-2 cells. The data set is described as follows: Caco-2 flux assay for cell permeability. It counts as in vitro ADME. The following applies: Caco-2, 2 h incubation. As to the method: The cell permeability of a substance can be investigated by means of in vitro testing in a flux assay using Caco-2 cells [M. D. Troutman and D. R. Thakker, Pharm. […] For this purpose, the cells were cultured for 15-16 days on 24-well filter plates. For the determination of permeation, the respective test substance was applied in a HEPES buffer to the cells either apically (A) or basally (B) and incubated for 2 hours. After 0 hours and after 2 hours, samples were taken from the cis and trans compartments. The samples were separated by HPLC (Agilent 1200, Böblingen, Germany) using reverse phase columns. The HPLC system was coupled via a Turbo Ion Spray Interface to a Triple Quadropole mass spectrometer API 4000 (AB SCIEX Deutschland GmbH, Darmstadt, Germany).
For orientation: Caco-2 cells form a polarised layer with tight junctions and transporters.

Another data set has as its system NCI-H292. The data set is described as follows: Cytotoxic effect, MTT assay, NCI-H292 cells. It counts as cell-based. Conditions: Homo sapiens, Table 2, metabolites.
Another data set concerns the target T1, legumain (Homo sapiens, UniProt Q99538).
T1 construct: purchased R&D Systems 2199-CY
T1 sequence (Q99538 18-323 limits assumed): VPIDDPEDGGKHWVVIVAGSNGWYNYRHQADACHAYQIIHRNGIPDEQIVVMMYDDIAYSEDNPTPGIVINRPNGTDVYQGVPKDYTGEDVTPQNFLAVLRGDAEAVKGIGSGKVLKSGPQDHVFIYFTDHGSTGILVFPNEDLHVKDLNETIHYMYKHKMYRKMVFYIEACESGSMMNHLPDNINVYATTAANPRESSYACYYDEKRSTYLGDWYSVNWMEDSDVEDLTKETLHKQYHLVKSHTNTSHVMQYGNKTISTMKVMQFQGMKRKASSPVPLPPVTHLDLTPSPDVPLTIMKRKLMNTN
Nature of the data set: Legumain assay (enzymatic cleavage). In kind it is biochemical. Conditions: recombinant human legumain, rhLegumain 1 ng/μl, substrate 3 μM, pH 5.0, read-out: half-life of legumain-mediated cleavage to the target compound (converted). Here is the method:
The legumain assay was conducted with recombinant human enzyme. The rhlegumain enzyme solution (catalogue #2199-CY, R&D Systems) was diluted in 50 mM Na acetate buffer/100 mM NaCl, pH 4.0 to the desired concentration and preincubated at 37° C. for 2 h. rhLegumain was then adjusted to a final concentration of 1 ng/μl in 50 mM MES buffer, 250 mM NaCl, pH 5.0. For every legumain-cleavable prodrug to be examined, a mixture was made up in a micro reaction vessel (0.5 ml, from Eppendorf). For this purpose, the substrate solution was adjusted to the desired concentration (double concentration) with 50 mM MES buffer, 250 mM NaCl, pH 5.0. For the kinetic measurement of the enzymatic reaction, 250 μl of the legumain solution were first initially charged and the enzyme reaction was started by adding 250 μl of the substrate solution (final concentration: single concentration; 3 μM). At various points in time, 50 μl samples were taken. Immediately, 100 μl of ice-cold methanol were added to this sample in order to stop the enzymatic reaction, and the sample was then frozen at −20° C. The times selected for sampling were after 0.5 h, 1 h, 3 h and 24 h. The samples were then analysed by means of RP-HPLC analysis and by LC-MS analysis. The determination of the toxophore released enabled the determination of the half-life t1/2 of the enzymatic reaction. […]

The subject of the next data set is MOLM-13. The data set is described as follows: Cytotoxic effect, MTT assay, MOLM-13 cells. It counts as cell-based. Conditions: Homo sapiens, Table 2, metabolites. As to the method: (§1) After 48 h, the medium was replaced. […] The suspension cells were counted and sown into a 96-well culture plate with white bottom (from Costar #3610) (#3610) (MOLM-13: 2000 cells/well; NB4: 7000 cells/well; MV-4-11: 5000 cells/well in a total volume of 100 μl). After 6 hours of incubation at 37° C. and 5% carbon dioxide, the medium was changed and the antibody-drug conjugates or metabolites were added by pipette in 10 μl of culture medium in concentrations of 10^−5M to 10^−13M to the cells (triplicates) in 90 μl. […] After 96 h, the cell proliferation was detected using the MTT assay (ATCC, Manassas, Va., USA, catalogue No. 30-1010K). To this end, the MTT reagent was incubated with the cells for 4 h, followed by lysis of the cells overnight by addition of the detergent. The dye formed was detected at 570 nm (Infinite M1000 pro, Tecan). The measured data were used to calculate the IC50 of the growth inhibition using the DRC (dose response curve). The proliferation of cells which were not treated with test substance but were otherwise identically treated was defined as the 100% figure.

In another data set the test system is KPL-4. Nature of the data set: Cytotoxic effect, MTT assay, KPL-4 cells. In kind it is cell-based. Conditions: Homo sapiens, KPL4; Table 2, metabolites. As to the method:
as §1, with “μl).” for “μl). After 6 hours of incubation at 37° C. and 5% carbon dioxide, the medium was changed and the antibody-drug conjugates or metabolites were added by pipette in 10 μl of culture medium in concentrations of 10^−5M to 10^−13M to the cells (triplicates) in 90 μl.”

For `CC(C)(C)[C@H](c1cc(-c2cc(F)ccc2F)cn1Cc1ccccc1)N(CC[C@H](N)C(=O)NCCC(=O)N[C@H](CCC(=O)O)C(=O)O)C(=O)CO` [Example M1, N-{(2S)-2-Amino-4-[{(1R)-1-[1-benzyl-4-(2,5-difluorophenyl)-1H-pyrrol-2-yl]-2,2-dimethylpropyl}(glycoloyl)amino]butanoyl}-beta-alanyl-D-glutamic acid], the IC50 (commonly the midpoint of a concentration-inhibition curve) in the data set on SK-HEP-1 is 19.6 nM; in the data set on NCI-H292, 174 nM. In addition, the “Papp (B-A)” value in the data set on Caco-2 cells came out at 2.7 nm/s.
As to `CNC(=O)[C@H](CCN(C(=O)CO)[C@@H](c1cc(-c2cc(F)ccc2F)cn1Cc1ccccc1)C(C)(C)C)NC(=O)[C@H](CC(N)=O)NC(=O)[C@H](C)NC(=O)[C@H](C)NC(=O)Cc1ccncc1` [Model compound A, N-(Pyridin-4-ylacetyl)-L-alanyl-L-alanyl-N^1-[(2S)-4-[{(1R)-1-[1-benzyl-4-(2,5-difluorophenyl)-1H-pyrrol-2-yl]-2,2-dimethylpropyl}(glycoloyl)amino]-1-(methylamino)-1-oxobutan-2-yl]-L-aspartamide], at legumain, the half-life (commonly the time needed for the level to fall by half in the phase considered) at 3 μM was 24 min.
In the case of `CC(C)(C)[C@H](c1cc(-c2cc(F)ccc2F)cn1Cc1ccccc1)N(CCCN)C(=O)CO` [Reference Example R3M, N-(3-Aminopropyl)-N-{(1R)-1-[1-benzyl-4-(2,5-difluorophenyl)-1H-pyrrol-2-yl]-2,2-dimethylpropyl}-2-hydroxyacetamide], the IC50 with MOLM-13 turned out to be 0.0669 nM; with SK-HEP-1 it was 7.62 nM; in the data set on NCI-H292, 0.27 nM; in the data set with KPL-4 it was 0.257 nM.
